Measured values taken from US4006243A, “Amino-, mercapto- and -oxy-substituted-phenyl and -phenalkyl imidazoles” (Schering Aktiengesellschaft, priority 1974, dated 1977).

Key:
Type in all cases: cell-based
[1] = tested on: Trichophyton mentagrophytes; assay: MIC by the tube test against Trichophyton mentagrophytes (Table I)
Description: (§1) Table I illustrates the high activity of the compounds of this invention, using as examples the compounds numbered 5-25, which are compared to the known compounds 1-4, viz., the ethyl ester of 1-(1,2,3,4-tetrahydro-1-naphthyl)-imidazole-5-carboxylic acid (Etonam) and the commercially available 2-dimethylamino-6-(β-diethylaminoethoxy)-benzothiazole, dihydrochloride (Dimazol dihydrochloride), as well as N-(2-hydroxybenzyl)-imidazole and N-(4-hydroxybenzyl)-imidazole (Bull. Soc. Chim. France 1973, 1179). The MIC values were determined by the tube test.

[2] = tested on: Trichophyton rubrum; assay: MIC by the tube test against Trichophyton rubrum (Table I)
Description: as §1

[3] = tested on: Candida albicans; assay: MIC by the tube test against Candida albicans (Table I)
Description: as §1

Row | Minimum Inhibitory Concentration MIC against Trichophyton mentagrophytes [1] | Minimum Inhibitory Concentration MIC against Trichophyton rubrum [2] | Minimum Inhibitory Concentration MIC against Candida albicans [3] | Structure (SMILES)
1 | inactive | inactive | inactive | CCN(CC)CCOc1ccc2nc(N(C)C)sc2c1.Cl.Cl [Compound 2, 2-Dimethylamino-6-(β-diethylaminoethoxy)-benzothiazole, dihydrochloride]
2 | inactive | inactive | inactive | Oc1ccc(Cn2ccnc2)cc1 [Compound 4, N-(4-Hydroxybenzyl)-imidazole]
3 | inactive | – | inactive | Oc1ccccc1Cn1ccnc1 [Compound 3, N-(2-Hydroxybenzyl)-imidazole]

Row | Structure (SMILES) | Minimum Inhibitory Concentration MIC against Trichophyton mentagrophytes [1] | Minimum Inhibitory Concentration MIC against Trichophyton rubrum [2] | Minimum Inhibitory Concentration MIC against Candida albicans [3]
4 | CCOC(=O)c1cncn1C1CCCc2ccccc21 (stereo not drawn) [Compound 1, 1-(1,2,3,4-Tetrahydro-1-naphthyl)-imidazole-5-carboxylic Acid Ethyl Ester] | – | – | inactive
